Measurements reported in PubChem BioAssay (NCI).
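48-hour exposure; five concentrations; linearly interpolated endpoints. At the TGI there is no net growth.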

Assays:
Assay in all cases: NCI tumour cell line growth inhibition, 48 h
[1] = system: 786-0 renal
[2] = system: A498 renal
[3] = system: A549 NSCLC
[4] = system: ACHN renal
[5] = system: CAKI-1 renal
[6] = system: CCRF-CEM leukemia
[7] = system: COLO 205 colon
[8] = system: DU-145 prostate
[9] = system: EKVX NSCLC
[10] = system: HCC-2998 colon
[11] = system: HCT-116 colon
[12] = system: HCT-15 colon
[13] = system: HL-60(TB) leukemia
[14] = system: HOP-62 NSCLC
[15] = system: HS 578T breast
[16] = system: HT29 colon
[17] = system: IGROV1 ovarian
[18] = system: K-562 leukemia
[19] = system: KM12 colon
[20] = system: LOX IMVI melanoma
[21] = system: MALME-3M melanoma
[22] = system: MDA-MB-435
[23] = system: MDA-N
[24] = system: MOLT-4 leukemia
[25] = system: NCI-H226 lung
[26] = system: NCI-H23 lung
[27] = system: NCI-H460 lung
[28] = system: NCI-H522 lung
[29] = system: NCI/ADR-RES ovarian
[30] = system: OVCAR-4 ovarian
[31] = system: OVCAR-5 ovarian
[32] = system: OVCAR-8 ovarian
[33] = system: PC-3 prostate
[34] = system: RPMI-8226 leukemia
[35] = system: RXF 393 renal
[36] = system: SF-268 CNS
[37] = system: SF-295 CNS
[38] = system: SF-539 CNS
[39] = system: SK-MEL-2 melanoma
[40] = system: SK-MEL-28 melanoma
[41] = system: SK-MEL-5 melanoma
[42] = system: SK-OV-3 ovarian
[43] = system: SN12C renal
[44] = system: SNB-19 CNS
[45] = system: SNB-75 CNS
[46] = system: SR leukemia
[47] = system: SW-620 colon
[48] = system: T-47D breast
[49] = system: TK-10 renal
[50] = system: U251 CNS
[51] = system: UACC-257 melanoma
[52] = system: UACC-62 melanoma
[53] = system: UO-31 renal
[54] = system: BT-549 breast
[55] = system: HOP-92 NSCLC
[56] = system: M14 melanoma
[57] = system: MCF7 breast
[58] = system: MDA-MB-231 breast
[59] = system: OVCAR-3 ovarian

Measured: TGI

Cc1cc(C[C@H]2O[C@@H]3OC(C)(C)O[C@@H]3[C@H]3OC(C)(C)O[C@H]32)c2ccccc2n1
51.5 µM: [13]
94.4 µM: [28]
not listed: [54] | [55] | [56] | [57] | [58] | [59]
> 100 µM: all other assays above

CSc1nc2c(c(N(C)C)n1)C(O)n1c(nc3ccccc31)S2 (stereo not given)
> 77.9 µM: [44]
69.1 µM: [14]
75.5 µM: [20]
43.6 µM: [42]
> 74.5 µM: [55]
39.2 µM: [28]
74.2 µM: [45]
> 63.4 µM: [59]
65.3 µM: [35]
24.5 µM: [30]
> 62.1 µM: [11]
77.2 µM: [38]
> 85.3 µM: [48]
> 56.8 µM: [32]
> 70.8 µM: [15]
> 55.5 µM: [50]
not listed: [13] | [46]
> 100 µM: all other assays above
